According to publication PMC6453136 (Cellular signalling, 2018):
One block for each compound: values may come before it.

Columns and labels:
cAR1 [1] = target: T1, cAR1 (Dictyostelium discoideum, UniProt P13773); assay: cell-based
T1 sequence (P13773 1-392): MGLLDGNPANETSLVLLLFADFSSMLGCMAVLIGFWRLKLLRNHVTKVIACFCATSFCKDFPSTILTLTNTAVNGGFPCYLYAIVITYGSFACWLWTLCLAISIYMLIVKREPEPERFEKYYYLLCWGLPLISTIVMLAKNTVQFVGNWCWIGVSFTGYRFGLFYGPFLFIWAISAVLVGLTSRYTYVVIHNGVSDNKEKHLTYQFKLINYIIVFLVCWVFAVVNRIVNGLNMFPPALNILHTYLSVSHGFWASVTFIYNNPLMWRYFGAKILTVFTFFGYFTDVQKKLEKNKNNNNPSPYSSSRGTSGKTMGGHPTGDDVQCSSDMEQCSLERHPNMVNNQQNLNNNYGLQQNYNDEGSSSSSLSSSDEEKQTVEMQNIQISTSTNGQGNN

[2] = test system: cAMP-induced Gα2βγ subunit dissociation; assay: BRET^2 assay after drug pretreatment; type: cell-based, Dictyostelium; settings: for effect on interaction of Gα2 with βγ in resting cells (basal BRET^2 signal): 5 μM LatA or 50 μM Benomyl for 15 min
[3] = test system: 5.5 h-differentiated wild-type cells; assay: DIC and fluorescence confocal imaging of drug-treated cells; type: cell-based, Dictyostelium; settings: 5 μM LatA or 50 μM Benomyl for 15 min; Lifeact-GFP / tubulin-GFP reporters
cAR1 [4] = target: T1, cAR1
cAMP binding sites = settings: 10 mM caffeine, whole cells; cited from earlier work

SMILES: Nc1ncnc2c1ncn2[C@H]1C[C@H](O)[C@@H](COP(=O)(O)O)O1 [2’-dcAMP, 2’-deoxyadenosine-5’-monophosphate]
EC50 (cAR1 [1]): ~17 nM

SMILES: CCCCNC(=O)n1c(NC(=O)OC)nc2ccccc21 [Benomyl]
effect on interaction of Gα2 with βγ in resting cells (basal BRET^2 signal) [2]: did not affect
effect on cell morphology [3]: loss of morphological cell polarity

SMILES: C/C1=C/C(=O)O[C@@H]2C[C@@H](CC[C@H](C)/C=C\C=C\CC1)O[C@@](O)([C@@H]1CSC(=O)N1)C2 [LatA, Latrunculin A]
effect on interaction of Gα2 with βγ in resting cells (basal BRET^2 signal) [2]: did not affect
effect on cell morphology [3]: loss of morphological cell polarity

time to steady state of BRET^2 loss after stimulation (cAR1 [4]; 10 μM cAMP): approximately 20 s
decrease in total BRET^2 signal (cAR1 [4]; 10 μM cAMP, Gα2GFP^2/Rluc2Gβ/gα2^− cells): 30–40
total BRET^2 signal after stimulation (cAR1 [4]; 10 μM cAMP, Gα2GFP^2/Rluc2Gβ/gα2^− cells, 63 mBU before stimulation): 36 mBU
cAMP concentration inducing the full G protein dissociation response (cAR1 [4]; Gα2GFP^2/Rluc2Gβ/gα2^− cells): 500 nM
G protein subunit dissociation in cells lacking only cAR3 (extent and potency) (cAR1 [4]; carC^− cells): comparable to that in wild-type cells
SMILES: Nc1ncnc2c1ncn2[C@@H]1O[C@@H]2COP(=O)(O)O[C@H]2[C@H]1O [cAMP, cyclic adenosine monophosphate]
G protein subunit dissociation in cells lacking cAR1 (cAR1 [4]; 10 μM cAMP, carA^− and carA^−carC^− cells, undifferentiated and 5.5 h-differentiated): fails to induce considerable G protein subunit dissociation

SMILES: Cn1c(=O)c2c(ncn2C)n(C)c1=O [caffeine]
effect of caffeine on potency of cAMP-induced Gα2βγ subunit dissociation ([2]; 5 mM caffeine, in parallel to untreated cells): significantly increased potency
effect on cAMP binding sites (cAMP binding sites): conversion of most binding sites to the low affinity conformation
